In US9969752B2, “Inhibitors of HIF prolyl hydroxylase” (MERCK SHARP & DOHME CORP., priority 2014, dated 2018):
pIC50: −log10 of the molar value. Like-named read-outs stand apart in the source and are kept apart here.

Target: T1, Human HIF-PHD2 (Homo sapiens, UniProt Q9GZT9)
T1 construct: FLAG-tagged full length PHD2 expressed in and purified from baculovirus-infected Sf9 cells; FLAG; made in house; host or cells: baculovirus-infected Sf9 cells
Experiment: Inhibition of the hydroxylation of a HIF peptide by PHD2 (time resolved fluorescence, 384-well)
Assay type: biochemical
Settings: FLAG-tagged full length PHD2, 0.2 μM 2-oxoglutarate, 0.5 μM HIF-1α peptide, 45 minutes at room temperature
Description: To each well of a 384-well plate, 1 μL of test compounds in DMSO (final concentration ranging from 0.3 nM to 10 uM) were added into 20 μl of assay buffer (50 mM Tris pH 7.4/0.01% Tween-20/0.1 mg/ml bovine serum albumin/10 μM ferrous sulfate/1 mM sodium ascorbate/20 μg/ml catalase) containing 0.15 μg/ml FLAG-tagged full length PHD2 expressed in and purified from baculovirus-infected Sf9 cells. After a 5 min preincubation at room temperature, the enzymatic reactions were initiated by the addition of 4 μL of substrates {final concentrations of 0.2 μM 2-oxoglutarate and 0.5 μM HIF-1α peptide biotinyl-[…] […] After incubation for 45 minutes at room temperature, the reactions were terminated by the addition of a 25 μL quench/detection mix to a final concentration of 1 mM ortho-phenanthroline, 0.1 mM EDTA, 0.5 nM anti-(His)6 LANCE reagent (Perkin-Elmer Life Sciences), 100 nM AF647-labeled streptavidin (Invitrogen), and 2 μg/ml (His)6-VHL complex {S. Tan Protein Expr. Purif.

[1] = read-out: MS m/z (M + 1)+ and human HIF-PHD2 IC50

T1 sequence (Q9GZT9 whole entry): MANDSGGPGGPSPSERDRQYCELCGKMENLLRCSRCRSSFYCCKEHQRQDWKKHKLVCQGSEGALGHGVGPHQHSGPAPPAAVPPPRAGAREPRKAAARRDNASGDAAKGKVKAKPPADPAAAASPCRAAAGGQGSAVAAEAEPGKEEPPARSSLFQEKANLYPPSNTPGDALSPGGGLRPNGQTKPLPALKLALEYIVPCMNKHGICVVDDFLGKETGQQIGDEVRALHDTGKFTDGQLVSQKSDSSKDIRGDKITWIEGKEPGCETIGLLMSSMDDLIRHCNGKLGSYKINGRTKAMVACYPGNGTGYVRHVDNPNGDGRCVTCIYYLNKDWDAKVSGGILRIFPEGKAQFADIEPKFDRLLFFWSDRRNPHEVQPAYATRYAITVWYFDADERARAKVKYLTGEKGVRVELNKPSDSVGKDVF

SMILES: O=C(O)CNC(=O)c1c(O)c2ccc(Br)c3c2n(c1=O)C(c1cncs1)CO3 (stereo not shown) [Example 177, 2-(10-bromo-7-hydroxy-5-oxo-3-(thiazol-5-yl)-3,5-dihydro-2H-[1,4]oxazino[2,3,4-ij]quinoline-6-carboxamido)acetic acid]
- pIC50 [1]: 8.27

SMILES: Cc1ccc(-c2ccc(C3COc4cccc5c(O)c(C(=O)NCC(=O)O)c(=O)n3c45)cc2)cc1 (stereo not shown) [Example 144, N-{[7-hydroxy-3-(4′-methylbiphenyl-4-yl)-5-oxo-2,3-dihydro-5H-[1,4]oxazino[2,3,4-ij]quinolin-6-yl]carbonyl}glycine]
- pIC50 [1]: 8.00

SMILES: O=C(O)CNC(=O)c1c(O)c2cccc3c2n(c1=O)C(c1ccc(Br)cc1)CO3 (racemic) [Example 133, 2-(3-(4-Bromophenyl)-7-hydroxy-5-oxo-3,5-dihydro-2H-[1,4]oxazino[2,3,4-ij]quinoline-6-carboxamido)acetic acid]
- pIC50 (read-out: Human HIF-PHD2 IC50): 7.77

SMILES: Cc1cc2c3c(c1)c(O)c(C(=O)NCC(=O)O)c(=O)n3CC(c1ccc(C(F)(F)F)cc1)O2 (stereo not shown) [Example 19, 2-(7-Hydroxy-9-methyl-5-oxo-2-(4-(trifluoromethyl)phenyl)-3,5-dihydro-2H-[1,4]oxazino[2,3,4-ij]quinoline-6-carboxamido)acetic acid]
- pIC50 (read-out: Human HIF-PHD2 IC50): 8.25

SMILES: Nc1ccc(-c2ccc(C3COc4cccc5c(O)c(C(=O)NCC(=O)O)c(=O)n3c45)cc2)cn1 (stereo not shown) [Example 149, N-({3-[4-(6-aminopyridin-3-yl)phenyl]-7-hydroxy-5-oxo-2,3-dihydro-5H-[1,4]oxazino[2,3,4-ij]quinolin-6-yl}carbonyl)glycine]
- pIC50 [1]: 7.89

SMILES: CN1CC(c2ccc(C(F)(F)F)cc2)n2c(=O)c(C(=O)NCC(=O)O)c(O)c3ccc(F)c1c32 (stereo not shown) [Example 117, 2-(10-Fluoro-7-hydroxy-1-methyl-5-oxo-3-(4-(trifluoromethyl)phenyl)-1,2,3,5-tetrahydropyrido[1,2,3-de]quinoxaline-6-carboxamido)acetic acid]
- pIC50 (read-out: Human HIF-PHD2 IC50): 7.26

SMILES: O=C(O)CNC(=O)c1c(O)c2cc(F)cc3c2n(c1=O)C(c1ccc(C(F)(F)F)cc1)CN3 (stereo not shown) [Example 118, 2-(9-Fluoro-7-hydroxy-5-oxo-3-(4-(trifluoromethyl)phenyl)-1,2,3,5-tetrahydropyrido[1,2,3-de]quinoxaline-6-carboxamido)acetic acid]
- pIC50 (read-out: Human HIF-PHD2 IC50): 8.24

SMILES: O=C(O)CNC(=O)c1c(O)c2ccc(-c3cccnc3)c3c2n(c1=O)CCO3 [Example 153, N-[(7-Hydroxy-5-oxo-10-pyridin-3-yl-2,3-dihydro-5H-[1,4]oxazino[2,3,4-ij]quinolin-6-yl)carbonyl]glycine]
- pIC50 (read-out: Human HIF-PHD2 IC50): 8.44

SMILES: O=C(O)CNC(=O)c1c(O)c2c(Cl)ccc3c2n(c1=O)CC(c1ccc(C(F)(F)F)cc1)O3 (single isomer, unassigned) [Example 71, 2-(8-chloro-7-hydroxy-5-oxo-2-(4-(trifluoromethyl)phenyl)-3,5-dihydro-2H-[1,4]oxazino[2,3,4-ij]quinoline-6-carboxamido)acetic acid]
- pIC50 [1]: 8.29

SMILES: O=C(O)CNC(=O)c1c(O)c2c(F)ccc3c2n(c1=O)C(c1ccc(C(F)(F)F)cc1)CN3 (stereo not shown) [Example 121, 2-(8-Fluoro-7-hydroxy-5-oxo-3-(4-(trifluoromethyl)phenyl)-1,2,3,5-tetrahydropyrido[1,2,3-de]quinoxaline-6-carboxamido)acetic acid]
- pIC50 (read-out: Human HIF-PHD2 IC50): 8.03

SMILES: O=C(O)CNC(=O)c1c(O)c2c(F)ccc3c2n(c1=O)C(c1ccc(C(F)(F)F)cc1)CS3 (stereo not shown) [Example 98, 2-(8-Fluoro-7-hydroxy-5-oxo-3-(4-(trifluoromethyl)phenyl)-3,5-dihydro-2H-[1,4]thiazino[2,3,4-ij]quinoline-6-carboxamido)acetic acid]
- pIC50 (read-out: Human HIF-PHD2 IC50): 7.86

SMILES: O=C(O)CNC(=O)c1c(O)c2cc(Br)cc3c2n(c1=O)C(Cc1ccc(C(F)(F)F)cc1)CO3 (stereo not shown) [Example 5, 2-(9-Bromo-7-hydroxy-5-oxo-3-(4-(trifluoromethyl)benzyl)-3,5-dihydro-2H-[1,4]oxazino[2,3,4-ij]quinoline-6-carboxamido)acetic acid]
- pIC50 (read-out: Human HIF-PHD2 IC50): 7.74

SMILES: O=C(O)CNC(=O)c1c(O)c2cccc3c2n(c1=O)C(c1ccc(-c2cccc(Cl)c2)cc1)CO3 (stereo not shown) [Example 142, N-{[3-(3′-chlorobiphenyl-4-yl)-7-hydroxy-5-oxo-2,3-dihydro-5H-[1,4]oxazino[2,3,4-ij]quinolin-6-yl]carbonyl}glycine]
- pIC50 [1]: 7.72

SMILES: O=C(O)CNC(=O)c1c(O)c2cccc3c2n(c1=O)C(c1ccc(C(F)(F)F)cc1)CS3 (stereo not shown) [Example 100, 2-(7-Hydroxy-5-oxo-3-(4-(trifluoromethyl)phenyl)-3,5-dihydro-2H-[1,4]thiazino[2,3,4-ij]quinoline-6-carboxamido)acetic acid]
- pIC50 (read-out: Human HIF-PHD2 IC50): 7.49

SMILES: O=C(O)CNC(=O)c1c(O)c2cccc3c2n(c1=O)C(c1ccccc1)CC3 (single isomer, unassigned) [Example 130, 2-(1-Hydroxy-3-oxo-5-phenyl-3,5,6,7-tetrahydropyrido[3,2,1-ij]quinoline-2-carboxamido)acetic acid]
- pIC50 (read-out: Human HIF-PHD2 IC50): 7.74

SMILES: O=C(O)CNC(=O)c1c(O)c2ccc(F)c3c2n(c1=O)C(c1ccc(C(F)(F)F)cc1)CO3 (stereo not shown) [Example 164, 2-(10-fluoro-7-hydroxy-5-oxo-3-(4-(trifluoroMethyl)phenyl)-3,5-dihydro-2H-[1,4]oxazino[2,3,4-ij]quinoline-6-carboxamido)acetic acid]
- pIC50 [1]: 7.80

SMILES: COc1ccc(-c2ccc3c(O)c(C(=O)NCC(=O)O)c(=O)n4c3c2OCC4)cn1 [Example 154, N-{[7-hydroxy-10-(6-methoxypyridin-3-yl)-5-oxo-2,3-dihydro-5H-[1,4]oxazino[2,3,4-ij]quinolin-6-yl]carbonyl}glycine]
- pIC50 [1]: 8.43

SMILES: O=C(O)CNC(=O)c1c(O)c2c(F)cc(F)c3c2n(c1=O)C(c1cncs1)CO3 (stereo not shown) [Example 175, 2-(8,10-difluoro-7-hydroxy-5-oxo-3-(thiazol-5-yl)-3,5-dihydro-2H-[1,4]oxazino[2,3,4-ij]quinoline-6-carboxamido)acetic acid]
- pIC50 [1]: 8.55

SMILES: O=C(O)CNC(=O)c1c(O)c2cc(Br)cc3c2n(c1=O)CC(c1ccc(Br)cc1)O3 (stereo not shown) [Example 53, 2-(9-Bromo-2-(4-bromophenyl)-7-hydroxy-5-oxo-3,5-dihydro-2H-[1,4]oxazino[2,3,4-ij]quinoline-6-carboxamido)acetic acid]
- pIC50 (read-out: Human HIF-PHD2 IC50): 8.46

SMILES: O=C(O)CNC(=O)c1c(O)c2c(Br)ccc3c2n(c1=O)C(c1cncs1)CO3 (stereo not shown) [Example 176, 2-(8-bromo-7-hydroxy-5-oxo-3-(thiazol-5-yl)-3,5-dihydro-2H-[1,4]oxazino[2,3,4-ij]quinoline-6-carboxamido)acetic acid]
- pIC50 [1]: 8.11

SMILES: O=C(O)CNC(=O)c1c(O)c2cc(Br)cc3c2n(c1=O)C(c1ccc(C(F)(F)F)cc1)CO3 (stereo not shown) [Example 159, 2-(9-bromo-7-hydroxy-5-oxo-3-(4-(trifluoromethyl)phenyl)-3,5-dihydro-2H-[1,4]oxazino[2,3,4-ij]quinoline-6-carboxamido)acetic acid]
- pIC50 [1]: 7.33

SMILES: O=C(O)CNC(=O)c1c(O)c2cccc3c2n(c1=O)C(c1ccc(-c2ccncc2)cc1)CO3 (stereo not shown) [Example 148, N-{[7-hydroxy-5-oxo-3-(4-pyridin-4-ylphenyl)-2,3-dihydro-5H-[1,4]oxazino[2,3,4-ij]quinolin-6-yl]carbonyl}glycine]
- pIC50 [1]: 8.24
